Reference: PubChem BioAssay AID248 (DTP/NCI, 2004)
Inconclusive results and toxic doses are left out. Cut-off read from the data, not from the text of the source: active = T/C of 150% or more; inactive = T/C below 125%.

Test system: L1210 leukemia ip in BDF1 mice, survival T/C
Assay: NCI In Vivo Anticancer Drug Screen. Data for tumor model L1210 Leukemia (intraperitoneal) in B6D2F1 (BDF1) mice
Conditions: endpoint: mean survival time, higher = longer survival
Summary of the method: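 Value reflects the ratio of survival in compound-treated mice to survival in vehicle-treated controls, with both groups carrying the same transplanted tumor.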

[1] = dose: 100.0 mg/kg/injection, schedule: Q04DX002 (ip), vehicle: Klucel (hydroxypropylcellulose) (HPC)
[2] = dose: 200.0 mg/kg/injection, schedule: Q04DX002 (ip), vehicle: Klucel (hydroxypropylcellulose) (HPC)
[3] = dose: 400.0 mg/kg/injection, schedule: Q04DX002 (ip), vehicle: Klucel (hydroxypropylcellulose) (HPC)
[4] = dose: 100.0 mg/kg/injection, schedule: Q01DX001 (ip), vehicle: carboxymethylcellulose (CMC)
[5] = dose: 200.0 mg/kg/injection, schedule: Q01DX001 (ip), vehicle: carboxymethylcellulose (CMC)
[6] = dose: 400.0 mg/kg/injection, schedule: Q01DX001 (ip), vehicle: carboxymethylcellulose (CMC)

Measured: T/C

O=C(NCc1cccc2ccccc12)Nc1ccccc1Cl
inactive: [1] 100 % of control | [2] 104 % of control | [3] 96 % of control

CC12CCc3oc(-c4ccccc4)cc3C1=CCCC2=O (stereo unspecified)
inactive: dose: 100.0 mg/kg/injection, schedule: Q01DX001 (ip), vehicle: saline with Tween-80 102 % of control | dose: 200.0 mg/kg/injection, schedule: Q01DX001 (ip), vehicle: saline with Tween-80 94 % of control | dose: 400.0 mg/kg/injection, schedule: Q01DX001 (ip), vehicle: saline with Tween-80 96 % of control

Cc1cc(N(CCCl)CCCl)ccc1C=Nc1cccc(Cl)c1
inactive: dose: 50.0 mg/kg/injection, schedule: Q01DX001 (ip), vehicle: carboxymethylcellulose (CMC) 100 % of control | [4] 107 % of control | [5] 100 % of control | [6] 94 % of control

COc1cc(Cc2cnc(NC(C)=O)nc2NC(C)=O)cc(OC)c1OC
inactive: dose: 12.5 mg/kg/injection, schedule: Q01DX009 (ip), vehicle: saline with Tween-80 92 % of control | dose: 12.5 mg/kg/injection, schedule: Q04DX003 (ip), vehicle: saline with Tween-80 101 % of control | dose: 25.0 mg/kg/injection, schedule: Q01DX009 (ip), vehicle: saline with Tween-80 95 % of control | dose: 25.0 mg/kg/injection, schedule: Q04DX003 (ip), vehicle: saline with Tween-80 101 % of control | dose: 50.0 mg/kg/injection, schedule: Q01DX009 (ip), vehicle: saline with Tween-80 88 % of control | dose: 50.0 mg/kg/injection, schedule: Q04DX003 (ip), vehicle: saline with Tween-80 95 % of control

C=CCC1C(=O)CC(C)(C)CC1=O
inactive: dose: 100.0 mg/kg/injection, schedule: Q04DX003 (ip), vehicle: saline with Tween-80 103 % of control | dose: 200.0 mg/kg/injection, schedule: Q04DX003 (ip), vehicle: saline with Tween-80 103 % of control | dose: 400.0 mg/kg/injection, schedule: Q04DX003 (ip), vehicle: saline with Tween-80 111 % of control

CCCCCCCCCC(O)CCCCC (stereo unspecified)
inactive: dose: 100.0 mg/kg/injection, schedule: Q01DX009 (ip), vehicle: saline with Tween-80 103 % of control | dose: 100.0 mg/kg/injection, schedule: Q04DX003 (ip), vehicle: Klucel (hydroxypropylcellulose) (HPC) 98 % of control | dose: 200.0 mg/kg/injection, schedule: Q01DX009 (ip), vehicle: saline with Tween-80 107 % of control | dose: 200.0 mg/kg/injection, schedule: Q04DX003 (ip), vehicle: Klucel (hydroxypropylcellulose) (HPC) 97 % of control | dose: 400.0 mg/kg/injection, schedule: Q04DX003 (ip), vehicle: Klucel (hydroxypropylcellulose) (HPC) 101 % of control

CC(=O)OCCC/C(=C/c1ccc(/C=C(\CCCOC(C)=O)[N+](=O)[O-])cc1)[N+](=O)[O-]
inactive: [4] 92 % of control | [5] 97 % of control | [6] 91 % of control

Cc1cc([N+](=O)[O-])ccc1O
inactive: dose: 100.0 mg/kg/injection, schedule: Q01DX001 (ip), vehicle: saline 100 % of control | dose: 200.0 mg/kg/injection, schedule: Q01DX001 (ip), vehicle: saline 100 % of control

O=C(O)c1c(Cl)c(Cl)c(Cl)c(Cl)c1C(=O)O.O=C(O)c1c(Cl)c(Cl)c(Cl)c(Cl)c1C(=O)O.[Pt]
inactive: dose: 100.0 mg/kg/injection, schedule: Q04DX003 (ip), vehicle: saline sonified 105 % of control

CNC(=O)Oc1cc2ccccc2cc1C(=O)Nc1cc(OC)ccc1OC
inactive: dose: 25.0 mg/kg/injection, schedule: Q01DX009 (ip), vehicle: Klucel (hydroxypropylcellulose) (HPC) 94 % of control | dose: 50.0 mg/kg/injection, schedule: Q01DX009 (ip), vehicle: Klucel (hydroxypropylcellulose) (HPC) 101 % of control | dose: 100.0 mg/kg/injection, schedule: Q01DX009 (ip), vehicle: Klucel (hydroxypropylcellulose) (HPC) 94 % of control | dose: 200.0 mg/kg/injection, schedule: Q01DX009 (ip), vehicle: Klucel (hydroxypropylcellulose) (HPC) 95 % of control

CC/C(N)=C\C(=O)c1ccccc1
inactive: [1] 102 % of control | [2] 105 % of control | [3] 98 % of control

C1=NCCCN2CCCCC12 (stereo unspecified)
inactive: dose: 2.35 mg/kg/injection, schedule: Q01DX009 (ip), vehicle: Klucel (hydroxypropylcellulose) (HPC) 92 % of control | dose: 4.69 mg/kg/injection, schedule: Q01DX009 (ip), vehicle: Klucel (hydroxypropylcellulose) (HPC) 92 % of control | dose: 9.38 mg/kg/injection, schedule: Q01DX009 (ip), vehicle: Klucel (hydroxypropylcellulose) (HPC) 97 % of control | dose: 18.75 mg/kg/injection, schedule: Q01DX009 (ip), vehicle: Klucel (hydroxypropylcellulose) (HPC) 106 % of control
